Measurements from US7217711B2, “Piperazin-1-yl and 2-([1,4]diazepan-1-yl)-imidazo[4,5-d]-pyridazin-4-ones, the preparation thereof and their use as pharmaceutical compositions” (Boehringer Ingelheim International GmbH, priority 2003, dated 2007).

Molecular target: T1, DPP-IV (Homo sapiens, UniProt P27487)
T1 construct: an extract of the human colon carcinoma cell line Caco-2 is used as the DPP IV source; endogenous in cells; host or cells: Caco-2 (human colon carcinoma), differentiated to induce DPP-IV expression; Nonidet-P40 solubilised extract
Test: DPP-IV assay with extract of Caco-2 cells as DPP IV source, AFC substrate, fluorescence
Format: biochemical
Settings: extract of human colon carcinoma cell line Caco-2; substrate 100 μM; 60 minutes at ambient temperature; read-out: DPP IV inhibition IC50
Protocol: The cell extract was obtained from cells solubilised in a buffer (10 mM Tris HCl, 0.15 M NaCl, 0.04 t.i.u. aprotinin, 0.5% Nonidet-P40, pH 8.0) by centrifugation at 35,000 g for 30 minutes at 4° C. (to remove cell debris).
The DPP-IV assay was carried out as follows:
50 μl of substrate solution (AFC; AFC is amido-4-trifluoromethylcoumarin), final concentration 100 μM, were placed in black microtitre plates. 20 μl of assay buffer (final concentrations 50 mM Tris HCl pH 7.8, 50 mM NaCl, 1% DMSO) was pipetted in. The reaction was started by the addition of 30 μl of solubilised Caco-2 protein (final concentration 0.14 μg of protein per well). The test substances under investigation were typically added prediluted to 20 μl, while the volume of assay buffer was then reduced accordingly. The reaction was carried out at ambient temperature, the incubation period was 60 minutes. […] Dummy values (corresponding to 0% activity) were obtained in mixtures with no Caco-2 protein (volume replaced by assay buffer), control values (corresponding to 100% activity) were obtained in mixtures without any added substance.

T1 sequence (P27487 whole entry): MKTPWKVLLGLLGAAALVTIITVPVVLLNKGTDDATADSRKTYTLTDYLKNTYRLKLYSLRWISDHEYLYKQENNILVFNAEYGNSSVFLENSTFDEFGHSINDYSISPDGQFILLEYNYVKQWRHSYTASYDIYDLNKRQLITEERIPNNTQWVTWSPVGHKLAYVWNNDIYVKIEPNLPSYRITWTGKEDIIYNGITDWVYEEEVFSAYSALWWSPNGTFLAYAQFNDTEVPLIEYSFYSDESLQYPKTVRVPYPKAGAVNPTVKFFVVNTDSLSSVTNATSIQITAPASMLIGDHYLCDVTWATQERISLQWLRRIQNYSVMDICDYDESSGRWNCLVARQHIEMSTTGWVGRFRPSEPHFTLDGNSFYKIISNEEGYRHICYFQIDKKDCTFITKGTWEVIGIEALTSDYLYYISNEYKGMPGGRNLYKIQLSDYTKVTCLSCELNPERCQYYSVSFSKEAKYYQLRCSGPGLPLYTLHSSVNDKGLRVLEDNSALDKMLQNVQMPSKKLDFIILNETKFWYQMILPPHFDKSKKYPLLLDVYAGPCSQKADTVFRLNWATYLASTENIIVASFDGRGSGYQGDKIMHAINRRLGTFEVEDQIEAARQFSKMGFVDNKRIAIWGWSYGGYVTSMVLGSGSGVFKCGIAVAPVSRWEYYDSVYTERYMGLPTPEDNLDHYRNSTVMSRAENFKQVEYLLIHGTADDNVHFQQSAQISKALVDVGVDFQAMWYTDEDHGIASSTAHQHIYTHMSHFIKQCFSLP

Row | IC50 | SMILES
1 | 5 nM | CC#CCn1c(N2CCCNCC2)nc2cnn(Cc3nc4c(C)cccc4o3)c(=O)c21 [1(13), 2-([1,4]diazepan-1-yl)-3-(2-butyn-1-yl)-5-[(4-methyl-benzoxazol-2-yl)methyl]-3,5-dihydro-imidazo[4,5-d]pyridazin-4-one]
2 | 3 nM | CC#CCn1c(N2CCNCC2)nc2cnn(Cc3nc4c(C)cccc4o3)c(=O)c21 [1(9), 2-(piperazin-1-yl)-3-(2-butyn-1-yl)-5-[(4-methyl-benzoxazol-2-yl)methyl]-3,5-dihydro-imidazo[4,5-d]pyridazin-4-one]
3 | 4 nM | CC#CCn1c(N2CCCNCC2)nc2cnn(Cc3ccc4c(c3)nnn4C)c(=O)c21 [1(12), 2-([1,4]diazepan-1-yl)-3-(2-butyn-1-yl)-5-[(1-methyl-1H-benzotriazol-5-yl)methyl]-3,5-dihydro-imidazo[4,5-d]pyridazin-4-one]
4 | 17 nM | CC#CCn1c(N2CCCNCC2)nc2cnn(Cc3cc(C)c4nc(C)c(C)nc4c3)c(=O)c21 [1(2), 2-([1,4]diazepan-1-yl)-3-(2-butyn-1-yl)-5-[(2,3,8-trimethyl-quinoxalin-6-yl)methyl]-3,5-dihydro-imidazo[4,5-d]pyridazin-4-one]
5 | 14 nM | CC#CCn1c(N2CCNCC2)nc2cnn(Cc3cc(C)c4nc(C)c(C)nc4c3)c(=O)c21 [Example 2, 2-(piperazin-1-yl)-3-(2-butyn-1-yl)-5-[(2,3,8-trimethyl-quinoxalin-6-yl)methyl]-3,5-dihydro-imidazo[4,5-d]pyridazin-4-one]
6 | 2 nM | CC#CCn1c(N2CCNCC2)nc2cnn(Cc3ccc4c(c3)nnn4C)c(=O)c21 [1(11), 2-(piperazin-1-yl)-3-(2-butyn-1-yl)-5-[(1-methyl-1H-benzotriazol-5-yl)methyl]-3,5-dihydro-imidazo[4,5-d]pyridazin-4-one]

Test system: rats
Test: Tolerability in rats after oral administration
Format: in vivo
Settings: oral administration of 10 mg/kg

Row | SMILES | toxic side effects
7 | CC#CCn1c(N2CCNCC2)nc2cnn(Cc3nc(C)c4ccccc4n3)c(=O)c21 [Example 1, 2-(piperazin-1-yl)-3-(2-butyn-1-yl)-5-[(4-methyl-quinazolin-2-yl)methyl]-3,5-dihydro-imidazo[4,5-d]pyridazin-4-one] | no toxic side effects could be detected
